The values that follow come from a melting point compilation (Tetko et al.; mined from patent text by program, amines drawn as free bases though some values may be those of a salt).

Residues, ends and D or L forms follow the SMILES beside them. *: point of attachment. Boc = CC(C)(C)OC(=O)* Some results are limits rather than exact numbers.

`CCOC(=O)c1ccc(NC(=O)CCc2ccc(C)cc2)cc1` had a melting point of 154 to 155 °C.

In turn, `CCC(Cc1ccc(C(=O)OC)cc1)NCC(O)c1ccc(O)c(CO)c1` (stereo not given) registered a melting point of 64 to 67 °C.

As for `O=C(c1ccc(O)c(Cc2ccc(=O)[nH]n2)c1)c1c(Cl)cc(Cl)cc1Cl`, the melting point is 258 °C.

The compound `COC(=O)c1cc(-c2ncnc(C)c2C#N)c(F)cc1Cl` registered a melting point of 142 to 144 °C.

For the compound `Cc1ccc(S(=O)(=O)ON=C(C#N)c2ccccc2)cc1`, the melting point was in the range of 131 to 132 °C.

Take `COC(=O)c1cccc(Cl)c1N`: the melting point was 36 °C.

In the case of `O=C1OCC(c2ccc([N+](=O)[O-])cc2)C1CSCc1ccccc1` (stereo not given), the melting point lay within 90 to 91 °C.

In turn, `COC(=O)c1ccc(Cc2cccc3ccc(C=C(C)C(=O)O)cc23)c(OC)c1` yielded a melting point of 187 to 188 °C.

The compound `CCn1ncc2c1ncc1c(NCCCN(C)C)nc3cc(C)nn3c12` returned a melting point of 178 to 179 °C.

As for `O=Cc1cc(F)cc2c1OCCC2`, the melting point lay within 55 to 57 °C.

As for `NC(=O)Cc1cnc2c(NC(=O)c3c(Cl)cccc3Cl)cccc2c1`, the melting point is 251 to 253 °C.

`O=c1ccc(-c2ccc(-n3ccnc3)nc2)n[nH]1`: the melting point was in the range of 261 to 263 °C.

With `CC1(C)NC(=O)C(C)(C)N1O`, the melting point lay within 240 to 245 °C.

On to `COC(=O)C(CCSC)NC(=O)C(CC(C)C)NC(=O)CNC(=O)C(NC(=O)C(Cc1ccccc1)NC(=O)C(C)NC(=O)OC(C)(C)C)C(C)C` (stereo not given) (Boc-AFVGLM-OMe; configuration not given here), for which the melting point is 252 to 254 °C.

With `COc1ccc2c(C)c([N+](=O)[O-])ccc2c1C(F)(F)F`, the melting point lay in the range of 141 to 142 °C.

On to `CC=CCOc1c(I)cc(C(C)O)nc1Cl` (stereo not given), for which the melting point was in the range of 61 to 62.5 °C.

Compound `CCCC(C)c1nn(-c2ccc(C(F)(F)F)cn2)cc1CCCOc1c(CC(=O)O)cccc1OC` (stereo not given) had a melting point of 107 to 108 °C.

For the compound `Cn1c(=O)c(-c2ccc(Cl)cc2Cl)cc2c3cc(-c4csc(CO)n4)ccc3n(C)c21`, the melting point lay in the range of 261 to 262 °C.

Compound `O=C(COc1ccc(CCNS(=O)(=O)c2ccccc2)cc1)Nc1ccccc1` showed a melting point of 123 °C.

For the compound `O=C1CCC(=O)N1Cc1nc2sc3c(c2c(-c2ccc(O)cc2)c1Cl)CCNC3`, the melting point fell in the range of 286 to 287 °C.

Compound `CS(=O)(=O)Nc1cc(F)cc(C(O)CN)c1` (stereo not given) registered a melting point of 167 to 169 °C.

On to `ON=C1CCC(c2ccccc2)CC1c1ccccc1` (stereo not given), for which the melting point lay in the range of 214 to 215 °C.

Compound `OCc1nccn1C(c1ccccc1)(c1ccccc1)c1ccccc1` showed a melting point of 243 to 244 °C.

Take `O=C(O)CN1C(=O)C(=Cc2ccc(Cl)cc2Cl)SC1=S`: the melting point was more than 237 °C.

In turn, `CCC1C(C)=NN=C(c2ccc(OC)c(OC)c2)c2cc(OC)c(OC(C)C)cc21` (stereo not given) registered a melting point of 109 to 111 °C.

Consider `CCn1nc2c(N)nc3ccccc3c2c1CCCCN1C(=O)c2ccccc2C1=O`, for which the melting point was 216 to 217 °C.

With `COC(=O)Nc1ccc(C(=O)OC)cc1`, the melting point was 177 to 178 °C.

Take `O=C(O)CCCCCCC1=CCCC1=O`: the melting point was in the range of 41 to 43 °C.

`COc1cc2ncnc(N3CCN(c4ccc5c(c4)CCC(=O)N5)CC3)c2cc1OC` had a melting point of 261 to 262 °C.

`CCc1ccc2c(OCC(=O)O)c(C(C)C)nn2c1` registered a melting point of 118 to 119 °C.

The compound `O=C(O)c1c(Cl)ccc2c1OCCO2` came in with a melting point of 162 °C.

Take `CC1(C)OC(=S)Nc2ccc(-c3ccc(F)c(Cl)c3)cc21`: the melting point is 196 to 197 °C.

In the case of `CN(Cc1ccc(COC(=O)NC(Cc2ccccc2)C(=O)O)cc1)c1ccccc1` (stereo not given), the melting point was in the range of 69.6 to 70.1 °C.

On to `CNC(NCCSCc1[nH]cnc1C)=C(C#N)C#N`, for which the melting point was in the range of 133 to 135 °C.

Consider `CNc1nnc(-c2cc3c(Oc4ccc(Cl)cc4)cncc3s2)s1`, for which the melting point lay within 226 to 229 °C.

`COCCOCc1nn(C)c2c1N=C(c1ccc(-n3c(C)nc4cnccc43)cc1)CC(=O)N2C`: the melting point is 142 to 144 °C.

`Cc1cccc(OC2=NS(=O)(=O)N=C(Oc3cccc(C)c3)N2C)c1` displayed a melting point of 221 to 223 °C.

Consider `Brc1ccc(SCCOCCSc2ccc(Br)cc2)cc1`, for which the melting point is 53 °C.

Compound `C=CCONC(=O)c1nc(-c2ccc(Cl)c(OC)c2F)nc(N)c1C=C` registered a melting point of 98 to 101 °C.

In turn, `COC(=O)c1ccc(Cc2cc3cc(Cl)ccc3n2S(=O)(=O)c2ccc(C(C)C)cc2)cc1` had a melting point of 99 °C.

`C=C1SC(=O)N(c2ccc3cc(-c4ccc(OC)c(-c5ccccc5)c4)ccc3c2)C1=O` came in with a melting point of 221 to 224 °C.

With `CCOC(=S)c1c(C)nc2sccn12`, the melting point was 133 to 135 °C.

In turn, `Cn1nc(-c2cc(C=O)c(Cl)cc2Cl)c(Cl)c1OC(F)F` returned a melting point of 138 °C.

As for `O=C(O)CN=c1sc2ccccc2s1`, the melting point is 195 to 200 °C.

In turn, `OCC1OC2CC(O)CC(C2)O1` (stereo not given) yielded a melting point of 146 to 149 °C.

`CCNC1=CC(=O)c2c(OC)ccc(OC)c2C1=O` gave a melting point of 172 to 173 °C.

Take `CCNC=C(C(=O)OCC)C(=O)c1cc(F)c(F)c(C)c1F`: the melting point turned out to be 110 °C.

Consider `COCCOc1ccc2c(Nc3ccc(Cl)cc3Cl)c(C#N)cnc2c1`, for which the melting point was in the range of 144 to 145 °C.

In turn, `O=C(O)COc1ccc(C(=O)c2ccc(F)cc2)c2ccccc12` returned a melting point of 105 to 108 °C.

`CCOC(=O)/C=C/c1ccc(NC(=O)c2csc(NC(=O)NCc3ccccc3)n2)cc1` registered a melting point of 207 °C.

`COc1c(C2CCN(CCCCNC(=O)c3sc(-c4ccc(Cl)cc4)nc3CO)CC2)ccc2c1CCCC2` displayed a melting point of 198 to 200 °C.

`CCCc1nc(-n2c(C)ccc2C)c(/C=C/C(=O)O)n1Cc1ccc(-c2ccccc2-c2nnn[nH]2)cc1` yielded a melting point of 144 to 150 °C.

With `COC(=O)c1cc(C(=O)c2ncc3ccc(NC(=O)OC(C)(C)C)cn23)ccc1[N+](=O)[O-]`, the melting point was 182 °C.

Take `Cc1ncncc1C(=O)Nc1ccc(-n2nc(C(F)(F)F)cc2C2CC2)cc1`: the melting point was 163 to 166 °C.

Consider `O=C1c2cccc3c(Br)ccc(c23)C(=O)N1O`, for which the melting point was in the range of 248 to 251 °C.

For `CCN1CNS(=O)(=O)c2cc(Br)ccc21`, the melting point lay within 122 to 124 °C.

Turning to `CCCCCCCc1ccc(C2CC(CCCCCC)C(=O)O2)cc1` (stereo not given), the melting point was 45.9 to 48 °C.

`CS(=O)(=O)Nc1ccc(C=O)cc1Oc1ccc(F)cc1F`: the melting point lay within 156 to 157 °C.

On to `COC(=O)c1ccc(-c2ccc(-c3cn([C@H]4CN5CCC4CC5)nn3)s2)cc1F`, for which the melting point is 250 °C.

For the compound `COC(=O)COc1ccc(OC2CCN(c3ccncc3)CC2)cc1`, the melting point is 74 to 76 °C.

With `COCCN(c1cccc2cc(C(=O)NCCSC(c3ccccc3)(c3ccccc3)c3ccccc3)[nH]c12)S(=O)(=O)c1cccs1`, the melting point fell in the range of 65 to 66 °C.

`N#Cc1ccc(-c2ncc(C(F)(F)F)cc2Cl)cc1OCC(=O)C1CC1` gave a melting point of 115 to 116 °C.

`Cc1nc(N2CCN(Cc3ccc(C(F)(F)F)cc3)C2=O)sc1C(=O)O` showed a melting point of 195 to 197 °C.

In the case of `S=c1[nH]c2ccc(-c3cccc(Cl)c3)cc2n1Cc1ccccc1`, the melting point lay within 211 to 212 °C.

As to `Cc1cnc(-c2nn(C)c(OC(F)F)c2Cl)c(F)c1`, the melting point lay in the range of 41 to 42 °C.

`COc1c(OC)c(OC(C)=O)c2cc(OCCc3ccccc3)ccc2c1OC(C)=O` came in with a melting point of 70 to 71 °C.

For the compound `CCn1cc[nH]c(=O)c1=O`, the melting point lay within 173 to 174 °C.

Consider `Cn1c(C(F)(F)F)nn(-c2ccccc2N)c1=O`, for which the melting point came out at 101 °C.

For `CC(=O)NCCCCC1Cc2ccccc2C1`, the melting point was in the range of 83 to 84 °C.

The compound `COc1cc(NC(=O)c2cccc(CSc3cnccn3)c2)cc(OC)c1OC` registered a melting point of 112 to 119 °C.

The compound `O=[N+]([O-])c1cccc2cncc(Br)c12` came in with a melting point of 172 to 174 °C.

`C=C(CO)COC(=O)NCCCCCCCCCCCCCCC` yielded a melting point of 60 to 62 °C.

As to `O=C(O)[C@H]1Oc2ccc(Cl)cc2[C@@H](c2ccccc2)O1` (relative stereo), the melting point turned out to be 175 °C.

As to `CCCCCN(CCC12CC3CC(CC(C3)C1)C2)C(=O)NCCc1ccc(O)cc1`, the melting point lay in the range of 96.3 to 99.4 °C.

`Cc1cccc(C)c1NC1=NCCN1` showed a melting point of 155 to 156 °C.

Take `O=C1Nc2ccsc2C(=O)N2CC[C@@H]12`: the melting point was 274 °C.

Compound `CCCCc1nc2c(N)nc3ccc(OCc4ccccc4)cc3c2n1CCCCNC(=O)c1ccccc1` displayed a melting point of 173 to 174 °C.

Compound `CCCCCCCCCCCCOC(=O)c1ccc2oc3ccccc3c(=O)c2c1` returned a melting point of 79 to 81 °C.

On to `Cc1cccc(-c2nc(C(C)C)[nH]c2-c2cccc(-c3ccc(S(N)(=O)=O)cc3)c2)n1`, for which the melting point lay within 255 to 258 °C.

For `CCOc1ccc(-c2ccc3c(c2)C=C(C(=O)Nc2ccc(CN(C)C4CCOCC4)cc2)CCS3=O)cc1` (stereo not given), the melting point lay in the range of 192 to 195 °C.

`COc1cc(Nc2nccc(-c3ccc(Cl)nc3)n2)cc(OC)c1OC` returned a melting point of 191 to 192 °C.

Compound `OC1(c2ccc(-c3ccc(F)cc3)cc2)CN2CCC1CC2` (stereo not given) showed a melting point of 172 to 173 °C.

`CC1COCc2nc3c(N)nc4ccc(O)cc4c3n21` (stereo not given) came in with a melting point of 262 to 264 °C.

In turn, `O=C(O)CN1C(=O)c2cccc3c(Cl)ccc(c23)C1=O` returned a melting point of 260 °C.

In the case of `Cc1cn(C2(C(=O)N(C)C)CC2)nc1-c1ccccc1`, the melting point lay in the range of 52 to 55 °C.

As for `Nc1ccccc1SCc1noc(CSc2ccccc2N)n1`, the melting point stood at 68 °C.

Consider `CCN(c1ccc(Cl)cc1C(=O)O)S(=O)(=O)c1ccc(C)cc1`, for which the melting point is 163 to 165 °C.

`O=c1c(-c2cccc(F)c2)coc2c(O)c(O)ccc12` yielded a melting point of 230 °C.

Take `O=C(NC(CO)C(=O)c1ccc(Cl)cc1)C1CCN(C(=O)OCc2ccccc2)CC1` (stereo not given): the melting point fell in the range of 116 to 118 °C.

`CNC(=O)c1c(C)nc(C)n1Cc1ccc2oc(-c3ccccc3NS(=O)(=O)C(F)(F)F)c(Br)c2c1` registered a melting point of 208 to 210 °C.
